Where “and” joins values, the source holds several entries; their conditions need not be identical. Equal values may be shown once. Entries after “also recorded” stand apart in the source; their conditions may differ.
How the values were obtained:
[1] = tested on: HFD-fed C57BL/6J mice; assay: DIO mice: blood profiling (serum cholesterol, triglyceride); type: in vivo, mouse; details: for Serum TG levels, Mean Diff. (Vehicle vs. treated) / Serum total cholesterol levels, Mean Diff. (Vehicle vs. treated) / Serum TG levels, group mean / Serum total cholesterol levels (CHO), group mean: DIO mice; for Serum TG levels, Mean Diff. (Vehicle vs. treated) / Serum total cholesterol levels, Mean Diff. (Vehicle vs. treated): Dunnett's multiple comparisons test; for Serum TG levels, group mean / Serum total cholesterol levels (CHO), group mean: PO
Method: Blood samples were obtained by cardiac puncture, and plasma was isolated. Blood profiling was performed by GC Pharma (Green Cross Corporation). Plasma TG and cholesterol were detected with an in vitro enzymatic colorimetric assay (CHOL2 and TRIGL; Roche, Germany) using a Cobas 8000 clinical analyzer with a c702 module (Roche).

[2] = tested on: CDAHFD-fed C57BL/6 J mice; assay: CDAHFD mice: food intake; type: in vivo, mouse; details: amongst CDAHFD-fed groups, 12 weeks
Text: (§1) C57BL/6 J male mice were purchased from the Japan SLC. Inc (Hamamatsu, Japan). Mice (5 weeks old) were fed Teklad Certitied Irradiated Global 18% protein rodent diet purchased from Dooyeol Biotech Co. Ltd (Seoul, South Korea) during the acclimation period. The liver fibrosis/inflammation-induced groups were CDAHFD-fed (A06071302, Research diet). […] All animal experiments complied with the relevant ethical regulations.
Supplementary Figure 4. Food intake. Food intake of vehicle and CDAHFD-fed mice, two-way
ANOVA with the Holm-Sidak post hoc test. The data are presented as mean ± SD (n = 2 cages per
(1 picture or pasted object on this page, not shown here)

[3] = in vitro; details: mouse
[4] = tested on: CDAHFD-fed C57BL/6 J mice; assay: CDAHFD mice (12 weeks): body weight and clinical signs; type: in vivo, mouse; design: Body weight: unit: g; details: for Body weight, Mean Diff.: Tukey; for Body weight, Mean (one-way ANOVA): mean of 13 weekly values
Text: as §1

[5] = target: T1, 5HT6 (h) (Homo sapiens, UniProt P50406); assay: 5HT subtype antagonism assay (Eurofins Cerep): 5HT6; type: cell-based; details: concentration not given
T1 construct: host or cells: CHO cells

[6] = target: CYP1A2 (Homo sapiens, UniProt P05177); assay: in vitro
[7] = AMES test (mutagenic potential)
[8] = tested on: Col1a1; assay: CDAHFD mice: liver Col1a1 RNA expression (qRT-PCR); type: in vivo, mouse; details: for Relative liver Col1a1 expressions in mice, measured using quantitative RT-PCR: individual mice and Average; for Col1A1 mRNA, Mean Diff.: Tukey; for Col1A1 mRNA, Median / Col1A1 mRNA, Mean: n=5; for Col1A1 mRNA, Mean: Column A = 1
Text: as §1, with “diet). […].” for “diet).”
The frozen liver tissue was homogenized and put into QiAzol (Qiagen, Hilden) to isolate RNA, and 4 μg of RNA was synthesized into cDNA using the RevertAid First Strand cDNA synthesis kit (Thermo Fischer, Waltham). The expressions of mouse collagen I (Forward: 5’-TGTGTTCCCTACTCAGCCGTG-3’. Reverse: 5’-CATCGGTCATGCTCTCTCCAA-3’), mouse α-SMA (Forward:5’-TCCTGACGCTGAAGTATCCGAT-3’, Reverse: 5’-GGCCACACAAAGCTCGTTATAG-3’) and mouse 36B4 (Forward: 5’-ACCTCCTTCTTCCAGGCTTT-3’, Reverse: 5’-CTCCAGTCTTTATCAGCTGC-3’) as house-keeping gene were measured using ViiA 7 Real-time PCR system (Thermo Fischer scientific).

[9] = Column C (11c 5mpk) vs. Column D (11c 10mpk)
[10] = Column C (11c 5mpk) vs. Column B
[11] = Column D (11c 10mpk) vs. Column B

Chain of CYP1A2 (P05177 whole entry): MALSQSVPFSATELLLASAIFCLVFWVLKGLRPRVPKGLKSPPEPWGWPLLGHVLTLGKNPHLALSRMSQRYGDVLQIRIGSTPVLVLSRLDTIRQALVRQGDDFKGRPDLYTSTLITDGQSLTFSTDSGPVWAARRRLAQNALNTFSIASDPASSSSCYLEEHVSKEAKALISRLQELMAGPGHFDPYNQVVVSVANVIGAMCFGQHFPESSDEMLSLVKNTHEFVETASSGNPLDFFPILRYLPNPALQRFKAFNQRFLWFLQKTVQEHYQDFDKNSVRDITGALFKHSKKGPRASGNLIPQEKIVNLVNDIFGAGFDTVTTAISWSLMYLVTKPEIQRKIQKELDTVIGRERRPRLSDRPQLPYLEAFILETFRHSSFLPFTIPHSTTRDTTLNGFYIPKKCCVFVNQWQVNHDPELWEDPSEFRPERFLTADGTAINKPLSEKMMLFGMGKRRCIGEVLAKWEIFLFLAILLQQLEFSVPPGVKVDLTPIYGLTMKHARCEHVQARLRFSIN
T1 sequence (P50406 whole entry): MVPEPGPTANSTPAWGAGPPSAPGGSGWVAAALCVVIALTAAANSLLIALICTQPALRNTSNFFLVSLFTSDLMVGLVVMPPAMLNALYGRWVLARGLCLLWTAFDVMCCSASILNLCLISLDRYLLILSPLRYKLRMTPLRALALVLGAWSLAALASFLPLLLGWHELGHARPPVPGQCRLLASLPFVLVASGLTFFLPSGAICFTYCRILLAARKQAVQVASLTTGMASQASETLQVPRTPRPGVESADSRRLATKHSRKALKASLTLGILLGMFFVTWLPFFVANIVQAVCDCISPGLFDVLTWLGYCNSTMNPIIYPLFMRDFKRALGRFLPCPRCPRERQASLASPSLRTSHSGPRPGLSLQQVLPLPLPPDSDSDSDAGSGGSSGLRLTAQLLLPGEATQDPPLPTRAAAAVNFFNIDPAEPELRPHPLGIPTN

## Cc1nc2n(c(=O)c1CCN1CCC(=C3c4ccc(Cl)cc4CCc4cccnc43)CC1)CCCC2O (stereo not drawn) [Compound 11c]
[1]; 5mpk
  Serum TG levels, Mean Diff. (Vehicle vs. treated): 32.28 mg/dL
  Serum total cholesterol levels, Mean Diff. (Vehicle vs. treated): -18.72 mg/dL
  Serum TG levels, group mean: 71.94 mg/dL
[1]; 10mpk
  Serum TG levels, Mean Diff. (Vehicle vs. treated): 36.37 mg/dL
  Serum total cholesterol levels, Mean Diff. (Vehicle vs. treated): 0.9883 mg/dL
  Serum TG levels, group mean: 67.86 mg/dL
[1]; 5mpk, 5 mg/kg
  Serum total cholesterol levels (CHO), group mean: 220.6 mg/dL
[1]; 10mpk, 10 mg/kg
  Serum total cholesterol levels (CHO), group mean: 200.9 mg/dL
[1]; high-fat diet-induced NAFLD mice
  serum triglyceride levels: significant reduction
[2]
  food intake: no significant difference
[3]
  IC50: > 100 µM
[4]; 12 weeks
  body weight changes among the CDAHFD groups: not significantly different
[4]; CDAHFD mice, 5 and 10 mpk PO daily, 12 weeks
  clinical signs during the study period: no abnormal clinical signs were observed
[4]; CDAHFD+11c 5mpk, week 0, 5 mice
  Body weight, Average: 20.6 g
[4]; CDAHFD+11c 5mpk, week 0, individual mouse, in g (unit assumed)
  Body weight: 21.7 and 20.6 and 20.4 and 20.7 and 19.7
[4]; CDAHFD+11c 5mpk, week 1, 5 mice
  Body weight, Average: 20.6 g
[4]; CDAHFD+11c 5mpk, week 1, individual mouse, in g (unit assumed)
  Body weight: 21.2 and 20.8 and 20.5 and 20.7 and 19.7
[4]; CDAHFD+11c 5mpk, week 2, 5 mice
  Body weight, Average: 20.1 g
[4]; CDAHFD+11c 5mpk, week 3, 5 mice
  Body weight, Average: 19.9 g
[4]; CDAHFD+11c 5mpk, week 4, 5 mice
  Body weight, Average: 20.3 g
[4]; CDAHFD+11c 5mpk, week 5, 5 mice
  Body weight, Average: 20.5 g
[4]; CDAHFD+11c 5mpk, week 5, individual mouse, in g (unit assumed)
  Body weight: 20.8 and 21.2 and 20.5 and 20.2 and 19.9
[4]; CDAHFD+11c 5mpk, week 6, 5 mice
  Body weight, Average: 20.8 g
[4]; CDAHFD+11c 5mpk, week 6, individual mouse
  Body weight: 20.9 (2×) and 21.4 and 20.7 and 20.3
[4]; CDAHFD+11c 5mpk, week 7, 5 mice
  Body weight, Average: 21.4 g
[4]; CDAHFD+11c 5mpk, week 7, individual mouse
  Body weight: 22.0 (2×) and 21.7 and 21.0 and 20.4
[4]; CDAHFD+11c 5mpk, week 8, 5 mice
  Body weight, Average: 21.6 g
[4]; CDAHFD+11c 5mpk, week 8, individual mouse, in g (unit assumed)
  Body weight: 22.3 and 22.1 and 21.9 and 21.5 and 20.3
[4]; CDAHFD+11c 5mpk, week 9, 5 mice
  Body weight, Average: 22.1 g
[4]; CDAHFD+11c 5mpk, week 9, individual mouse
  Body weight: 23.0 and 22.4 (2×) and 21.7 and 20.9
[4]; CDAHFD+11c 5mpk, week 10, 5 mice
  Body weight, Average: 22.2 g
[4]; CDAHFD+11c 5mpk, week 10, individual mouse, in g (unit assumed)
  Body weight: 23.1 and 22.5 and 22.4 and 22.3 and 20.8
[4]; CDAHFD+11c 5mpk, week 11, 5 mice
  Body weight, Average: 22.5 g
[4]; CDAHFD+11c 5mpk, week 11, individual mouse, in g (unit assumed)
  Body weight: 23.6 and 23.2 and 22.9 and 22.3 and 20.7
[4]; CDAHFD+11c 5mpk, week 12, 5 mice
  Body weight, Average: 22.5 g
[4]; CDAHFD+11c 5mpk, week 12, individual mouse, in g (unit assumed)
  Body weight: 23.4 and 23.6 and 22.5 and 22.1 and 20.9
[4]; CDAHFD+11c 10mpk, week 0, 5 mice
  Body weight, Average: 20.6 g
[4]; CDAHFD+11c 10mpk, week 0, individual mouse
  Body weight: 21.3 (2×) and 20.1 and 20.3 and 20.0
[4]; CDAHFD+11c 10mpk, week 1, 5 mice
  Body weight, Average: 20.4 g
[4]; CDAHFD+11c 10mpk, week 1, individual mouse
  Body weight: 20.1 and 19.8 and 20.3 and 20.9 (2×)
[4]; CDAHFD+11c 10mpk, week 2, 5 mice
  Body weight, Average: 20.3 g
[4]; CDAHFD+11c 10mpk, week 3, 5 mice
  Body weight, Average: 20.3 g
[4]; CDAHFD+11c 10mpk, week 4, 5 mice
  Body weight, Average: 20.5 g
[4]; CDAHFD+11c 10mpk, week 5, 5 mice
  Body weight, Average: 20.9 g
[4]; CDAHFD+11c 10mpk, week 5, individual mouse
  Body weight: 20.9 (2×) and 20.6 and 22.0 and 20.3
[4]; CDAHFD+11c 10mpk, week 6, 5 mice
  Body weight, Average: 21.2 g
[4]; CDAHFD+11c 10mpk, week 6, individual mouse, in g (unit assumed)
  Body weight: 21.4 and 20.9 and 22.2 and 20.8 and 20.5
[4]; CDAHFD+11c 10mpk, week 7, 5 mice
  Body weight, Average: 21.5 g
[4]; CDAHFD+11c 10mpk, week 7, individual mouse, in g (unit assumed)
  Body weight: 21.9 and 21.0 and 22.3 and 21.1 and 21.2
[4]; CDAHFD+11c 10mpk, week 8, 5 mice
  Body weight, Average: 21.8 g
[4]; CDAHFD+11c 10mpk, week 8, individual mouse
  Body weight: 22.0 and 21.2 and 23.0 and 21.4 (2×)
[4]; CDAHFD+11c 10mpk, week 9, 5 mice
  Body weight, Average: 21.8 g
[4]; CDAHFD+11c 10mpk, week 9, individual mouse, in g (unit assumed)
  Body weight: 22.6 and 21.2 and 22.8 and 21.5 and 21.1
[4]; CDAHFD+11c 10mpk, week 10, 5 mice
  Body weight, Average: 22 g
[4]; CDAHFD+11c 10mpk, week 10, individual mouse, in g (unit assumed)
  Body weight: 22.4 and 21.7 and 23.1 and 21.6 and 21.4
[4]; CDAHFD+11c 10mpk, week 11, 5 mice
  Body weight, Average: 22.4 g
[4]; CDAHFD+11c 10mpk, week 11, individual mouse
  Body weight: 22.7 and 22.1 (2×) and 23.5 and 21.8
[4]; CDAHFD+11c 10mpk, week 12, 5 mice
  Body weight, Average: 22.5 g
[4]; CDAHFD+11c 10mpk, week 12, individual mouse
  Body weight: 22.9 and 22.3 (2×) and 23.3 and 21.6
[4]; Column A (Vehicle, no CDAHFD) vs. Column C (11c 5mpk), in g (unit assumed)
  Body weight, Mean Diff.: 3.52
[4]; Column A (Vehicle, no CDAHFD) vs. Column D (11c 10mpk), in g (unit assumed)
  Body weight, Mean Diff.: 3.44
[4]; Column B (CDAHFD+vehicle) vs. Column C (11c 5mpk), in g (unit assumed)
  Body weight, Mean Diff.: 0.1462
[4]; Column B (CDAHFD+vehicle) vs. Column D (11c 10mpk), in g (unit assumed)
  Body weight, Mean Diff.: 0.06615
[4]; [9]
  Body weight, Mean Diff.: -0.08
[4]; Column C (CDAHFD+11c 5mpk), in g (unit assumed)
  Body weight, Mean (one-way ANOVA): 21.17
[4]; Column D (CDAHFD+11c 10mpk), in g (unit assumed)
  Body weight, Mean (one-way ANOVA): 21.25
[5]
  Selectivity 6: % inhibition: 7%
[6]
  inhibition at 10 µM: < 1%
[7]
  AMES: didn’t show mutagenic potential; also recorded: Negative
[8]; CDAHFD+11c 5 mpk
  Relative liver Col1a1 expressions in mice, measured using quantitative RT-PCR: 27.265 and 19.811 and 25.539 and 19.317 and 28.556
[8]; CDAHFD+11c 5 mpk, mean
  Relative liver Col1a1 expressions in mice, measured using quantitative RT-PCR: 24.098
[8]; CDAHFD+11c 10mpk
  Relative liver Col1a1 expressions in mice, measured using quantitative RT-PCR: 18.660 and 20.539 and 29.586 and 37.388 and 28.021
[8]; CDAHFD+11c 10mpk, mean
  Relative liver Col1a1 expressions in mice, measured using quantitative RT-PCR: 26.839
[8]; CDAHFD-fed 11c vs CDAHFD-fed vehicle group
  mRNA expression of Col1a1 in liver tissue: significantly decreased
[8]; Column A (Vehicle, no CDAHFD) vs. Column C (11c 5mpk)
  Col1A1 mRNA, Mean Diff.: -23.1
[8]; Column A (Vehicle, no CDAHFD) vs. Column D (11c 10mpk)
  Col1A1 mRNA, Mean Diff.: -25.84
[8]; Column B (CDAHFD+vehicle) vs. Column C (11c 5mpk)
  Col1A1 mRNA, Mean Diff.: 14.99
[8]; Column B (CDAHFD+vehicle) vs. Column D (11c 10mpk)
  Col1A1 mRNA, Mean Diff.: 12.25
[8]; [10]
  Col1A1 mRNA, Difference between medians: Actual: -15.12
  Col1A1 mRNA, Difference between medians: Hodges-Lehmann: -15.12
[8]; [9]
  Col1A1 mRNA, Mean Diff.: -2.741
[8]; Column C (11c 5mpk)
  Col1A1 mRNA, Median: 25.54, n=5
[8]; Column C (CDAHFD+11c 5mpk)
  Col1A1 mRNA, Mean: 24.1
[8]; [11]
  Col1A1 mRNA, Difference between medians: Actual: -12.64
  Col1A1 mRNA, Difference between medians: Hodges-Lehmann: -12.18
[8]; Column D (11c 10mpk)
  Col1A1 mRNA, Median: 28.02, n=5
[8]; Column D (CDAHFD+11c 10mpk)
  Col1A1 mRNA, Mean: 26.84

Source: PMC10799935, “Discovery of a peripheral 5HT2A antagonist as a clinical candidate for metabolic dysfunction-associated steatohepatitis” (Nature Communications, 2024)
